Data taken from patent publication US12234504B1 (priority 2023, dated 2025).

Columns and labels:
[1] = test system: human DNA topoisomerase IIα; assay: Fluorescence-based DNA cleavage assay for human DNA topoisomerase IIα (T5 exonuclease digestion, SYBR Green staining); type: biochemical; conditions: 50 μM etoposide, […] human TopoIIα, FIG. 8C
Description: (§1) FIGS. 8A-8C. […] Fluorescence intensity was measured using a Biotek microplate reader with excitation wavelength of 497 nm and emission wavelength of 525 nm.

[2] = test system: human DNA topoisomerase IIα; assay: Agarose gel-based human DNA topoisomerase IIα mediated DNA cleavage assay; type: biochemical; conditions: 50 μM etoposide, increasing topoisomerase IIα, FIG. 8A
Description: as §1
DNA Gyrase and Human DNA Topoisomerase IIα Mediated DNA Cleavage Assay.
250 ng of relaxed plasmid pBR322 and 20 nM of E. coli DNA gyrase or human DNA topoisomerase IIα were mixed and incubated in 1×gyrase-mediated DNA cleavage buffer (20 mM Tris-HCl pH 8, 50 mM KAc, 10 mM MgCl2, 2 mM DTT, 1 mM ATP, 0.1 mg/mL BSA) at 37° C. for 15 minutes in the presence of an inhibitor or compound. After the incubation, 0.2% SDS and 0.1 mg/ml proteinase K were added to the reaction mixtures to trap the topoisomerase-inhibitor-DNA complex and digest the topoisomerase, respectively, by incubating for an additional 30 min at 37° C. DNA samples were analyzed in 1% agarose gel containing […] ethidium bromide in 1′TAE buffer and photographed under UV light. […] Etoposide was used as a positive control for human DNA topoisomerase IIα-mediated DNA cleavage assays.

`COc1cc([C@@H]2c3cc4c(cc3[C@@H](O[C@@H]3O[C@@H]5CO[C@@H](C)O[C@H]5[C@H](O)[C@H]3O)[C@H]3COC(=O)[C@H]23)OCO4)cc(OC)c1O` [etoposide] was tested, and the “fluorescence difference between presence and absence of compound (in words)” value [1] was “significant fluorescence difference” and the “linear and nicked plasmid DNA products (in words)” value [2] was “progressive increase in the linear and nicked plasmid DNA products”.
